According to publication PMC4111374 (Journal of Medicinal Chemistry, 2014):

How the values were obtained:
[1] = biological target: hERG channel (Homo sapiens, UniProt Q12809); details: for interaction with hERG: [3H]-dofetilide binding assay; for ratio of IC50 for hERG inhibition to IC50 for inhibition of LS174T cell proliferation: human
[2] = water solubility of hydrochloride salts; assay type: physicochemical
[3] = system: LS174T colon cancer cells; test: LS174T cell proliferation; assay type: cell-based; details: for IC50: Homo sapiens, LS174T, read-out: inhibition of LS174T cell proliferation IC50, LS174T colon cancer cells, 1 to 300 nM, triplicate
[4] = system: LS174T colon cancer cells; details: earlier report; cited from earlier work
[5] = cited from earlier work

Chain of hERG channel (Q12809 whole entry): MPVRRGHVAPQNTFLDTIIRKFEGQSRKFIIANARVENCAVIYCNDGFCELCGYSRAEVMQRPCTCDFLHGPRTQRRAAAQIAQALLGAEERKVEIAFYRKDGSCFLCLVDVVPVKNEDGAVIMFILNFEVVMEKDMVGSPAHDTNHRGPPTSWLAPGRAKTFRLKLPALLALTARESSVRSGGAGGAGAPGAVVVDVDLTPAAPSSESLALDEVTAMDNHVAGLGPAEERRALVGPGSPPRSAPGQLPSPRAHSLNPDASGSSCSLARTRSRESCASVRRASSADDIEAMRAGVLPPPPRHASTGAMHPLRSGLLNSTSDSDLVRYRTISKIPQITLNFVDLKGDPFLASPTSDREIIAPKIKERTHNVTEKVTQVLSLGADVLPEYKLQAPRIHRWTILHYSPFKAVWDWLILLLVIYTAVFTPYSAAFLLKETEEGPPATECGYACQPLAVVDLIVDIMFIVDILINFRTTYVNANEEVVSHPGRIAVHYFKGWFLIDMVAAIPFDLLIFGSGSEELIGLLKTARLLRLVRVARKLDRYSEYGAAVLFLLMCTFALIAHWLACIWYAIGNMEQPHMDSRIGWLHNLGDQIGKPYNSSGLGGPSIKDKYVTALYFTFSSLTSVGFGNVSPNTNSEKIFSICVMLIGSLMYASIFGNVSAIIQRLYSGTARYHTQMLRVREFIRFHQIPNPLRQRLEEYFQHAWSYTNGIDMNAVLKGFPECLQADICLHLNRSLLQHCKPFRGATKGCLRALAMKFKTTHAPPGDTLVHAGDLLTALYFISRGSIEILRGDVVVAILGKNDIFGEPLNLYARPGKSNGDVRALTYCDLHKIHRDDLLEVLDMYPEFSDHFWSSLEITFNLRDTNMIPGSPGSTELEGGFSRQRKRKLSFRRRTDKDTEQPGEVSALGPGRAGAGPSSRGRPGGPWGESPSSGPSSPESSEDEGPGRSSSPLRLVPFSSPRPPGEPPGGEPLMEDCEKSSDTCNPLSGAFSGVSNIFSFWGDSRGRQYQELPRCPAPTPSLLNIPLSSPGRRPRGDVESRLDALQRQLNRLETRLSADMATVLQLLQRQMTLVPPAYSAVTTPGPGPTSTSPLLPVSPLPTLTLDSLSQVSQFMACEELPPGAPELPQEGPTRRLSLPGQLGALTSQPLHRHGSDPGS

## CNc1ccc(/C=C/c2c(F)cccc2Cl)cn1 [FIDAS 8b, (E)-5-(2′-Chloro-6′-fluorostyryl)-2-(N-methylamino)pyridine]
[1]
  interaction with hERG: did not interact appreciably with hERG
  ratio of IC50 for hERG inhibition to IC50 for inhibition of LS174T cell proliferation: 5.0 × 10^3
[2]
  water solubility of hydrochloride salt: water-soluble

## CN(C)c1ccc(/C=C/c2c(F)cccc2Cl)cc1 [FIDAS 2a]
[3]; LS174T cells, relative to 3a
  in vitro activity relative to 3a: 10 fold

## CN(C)c1ccc(/C=C/c2c(F)cccc2F)cc1 [FIDAS 1a, (E)-4-(2′,6′-difluorostyryl)-N,N-dimethylaniline]
[4]
  in vitro activity in LS174T cells: low micromolar range
[5]
  half-life in vivo: reasonable half-life
[5]; in vivo
  oral bioavailability: good oral bioavailability

## CN(C)c1ncc(/C=C/c2c(F)cccc2F)cn1 [FIDAS 10a, (E)-5-(2′,6′-Difluorostyryl)-2-(N,N-dimethylamino)pyrimidine]
[1]
  ratio of IC50 for hERG inhibition to IC50 for inhibition of LS174T cell proliferation: 0.5 × 10^3

## CNc1ccc(/C=C/c2c(F)cccc2Cl)cc1 [FIDAS 2b]
[3]
  IC50: < 10 nM
[3]; LS174T cells
  IC50 for the inhibition of LS174T cells relative to 1a: 4 fold
[1]
  interaction with hERG: did not interact appreciably with hERG
  ratio of IC50 for hERG inhibition to IC50 for inhibition of LS174T cell proliferation: 6.6 × 10^3

## CN(C)c1ccc(/C=C/c2c(F)cccc2Cl)cn1 [FIDAS 8a, (E)-5-(2′-Chloro-6′-fluorostyryl)-2-(N,N-dimethylamino)pyridine]
[1]
  interaction with hERG: did not interact appreciably with hERG
  ratio of IC50 for hERG inhibition to IC50 for inhibition of LS174T cell proliferation: 12.7 × 10^3
[2]
  water solubility of hydrochloride salt: water-soluble

## CN(C)c1ccc(/C=C/c2c(F)cccc2Cl)nc1 [FIDAS 5a, (E)-2-(2′-Chloro-6′-fluorostyryl)-5-(N,N-dimethylamino)pyridine]
[1]
  ratio of IC50 for hERG inhibition to IC50 for inhibition of LS174T cell proliferation: 1.0 × 10^3

## CNc1ccc(/C=C/c2c(F)cccc2F)cc1 [FIDAS 1b]
[3]
  IC50: < 10 nM
[3]; LS174T cells
  IC50 for the inhibition of LS174T cells relative to 1a: 4 fold
[1]
  interaction with hERG: did not interact appreciably with hERG
  ratio of IC50 for hERG inhibition to IC50 for inhibition of LS174T cell proliferation: 6.5 × 10^3
